Measured values published in a compilation of properties of binary mixtures (doi:10.1016/j.fluid.2020.112621).

Experiment: xn = mol fraction of the nth substance listed
Conditions: 101 kPa

CCCC[n+]1ccn(C)c1.COP(=O)([O-])OC + CCCCCC(=O)O.CCCCCC(=O)[O-].CC[NH+](CC)CCO
x2 = 0
Conditions	viscosity [mPa·s]
278.15 K	3503
283.15 K	2142
288.15 K	1361.1
293.15 K	895
308.15 K	305.8
313.15 K	224.9
323.15 K	129.4
328.15 K	100.9
338.15 K	64.25
343.15 K	52.35
348.15 K	43.18
353.15 K	36.02
368.15 K	22.22
373.15 K	19.25

CCCC[n+]1ccn(C)c1.COP(=O)([O-])OC + CCCCC(=O)[O-].CC[NH+](CC)CCO
x2 = 0
Conditions	viscosity [mPa·s]
278.15 K	3503
283.15 K	2142
288.15 K	1361.1
293.15 K	895
298.15 K	609
308.15 K	305.8
313.15 K	224.9
318.15 K	168.9
333.15 K	79.9
338.15 K	64.25
343.15 K	52.35
353.15 K	36.02
363.15 K	25.86

CCCC[n+]1ccn(C)c1.O=S(=O)([N-]S(=O)(=O)C(F)(F)F)C(F)(F)F + CC(=O)[O-].CCCC[NH2+]CCO
x2 = 0
Conditions	viscosity [mPa·s]
283.15 K	109
298.15 K	51.73
303.15 K	41.8
308.15 K	34.3
313.15 K	28.55
323.15 K	20.5
328.15 K	17.64
333.15 K	15.33
338.15 K	13.43
343.15 K	11.85
348.15 K	10.53
353.15 K	9.41
358.15 K	8.46
363.15 K	7.65
368.15 K	6.95
373.15 K	6.34

CC(=O)O.CC(=O)[O-].CC[NH+](CC)CCO + CCCC[n+]1ccn(C)c1.COP(=O)([O-])OC
viscosity [mPa·s]
Conditions	x1 = 0.0748	x1 = 0.3316	x1 = 0.4263	x1 = 0.5275	x1 = 0.6343	x1 = 0.7493	x1 = 0.8567	x1 = 1
278.15 K	2020	–	363	–	329	314	310	340
283.15 K	1280.5	315	254.3	234.7	229	–	210	227
288.15 K	840	224.3	183.7	–	164	157.9	146.3	156.1
293.15 K	–	164.3	135.3	124	120.6	–	104.7	110.4
298.15 K	396	123.7	102.2	–	–	88	–	80.2
303.15 K	–	95.2	79	72.4	70.3	67.9	57.8	–
308.15 K	208	–	62.2	57	55.2	–	44.3	45.3
313.15 K	155.8	58.3	48.55	–	–	41.14	34.65	35.12
318.15 K	119.1	48.01	40.43	36.97	35.71	34.54	–	27.71
323.15 K	92.7	39.18	33.11	–	–	28.27	–	22.22
328.15 K	–	32.29	–	25.04	24.08	–	18.26	18.08
333.15 K	58.8	24.59	20.72	18.82	–	–	15.16	14.9
338.15 K	–	22.48	19.2	17.53	16.79	16.24	12.72	12.45
343.15 K	39.38	18.97	16.24	14.82	14.16	–	10.79	10.49
348.15 K	32.81	16.13	13.83	12.6	–	11.59	9.24	–
353.15 K	27.63	12.97	11.07	10.04	9.54	9.16	7.98	7.67
358.15 K	23.49	11.89	10.22	–	8.82	8.46	–	–
363.15 K	20.16	10.32	8.87	8.06	7.63	7.29	6.09	–
368.15 K	17.45	9.01	7.75	–	–	6.33	5.37	5.09
373.15 K	15.23	7.79	6.7	6.06	5.71	5.43	4.76	4.5

CCCC[n+]1ccn(C)c1.COP(=O)([O-])OC + CCCC(=O)[O-].CC[NH+](CC)CCO
x2 = 0
Conditions	viscosity [mPa·s]
278.15 K	3503
283.15 K	2142
288.15 K	1361.1
293.15 K	895
303.15 K	426
308.15 K	305.8
313.15 K	224.9
323.15 K	129.4
333.15 K	79.9
338.15 K	64.25
343.15 K	52.35
353.15 K	36.02
358.15 K	30.38
363.15 K	25.86
368.15 K	22.22

CCCCCC(=O)O.CCCCCC(=O)[O-].CC[NH+](CC)CCO + CCCC[n+]1ccn(C)c1.COP(=O)([O-])OC
viscosity [mPa·s]
Conditions	x1 = 0.0684	x1 = 0.1429	x1 = 0.2213	x1 = 0.3088	x1 = 0.3966	x1 = 0.4995	x1 = 0.6088	x1 = 0.7258	x1 = 0.8535	x1 = 1
278.15 K	2021	1198.1	–	529	412	343	–	255.9	217.2	179
283.15 K	–	787	520	365	288.7	–	211.6	–	159	132.6
288.15 K	841	535	–	–	207.7	176.1	155.1	137.2	118.9	–
293.15 K	570	374	259.3	189.1	152.9	–	116	103.5	–	76.9
298.15 K	398	268.2	–	–	114.9	98.9	88.5	79.5	70.1	60
303.15 K	285.4	197.1	–	107	88.1	76.3	–	62.1	55.1	–
308.15 K	209.4	–	108.8	82.8	68.7	59.9	54.11	49.21	43.94	38.14
313.15 K	–	113.2	84.6	–	54.51	47.69	43.28	39.55	35.51	31
318.15 K	120	88.2	66.9	52.14	–	38.54	35.09	32.2	–	25.48
323.15 K	93.3	69.8	53.69	42.29	–	31.55	28.81	26.52	24.02	21.16
328.15 K	73.8	56.08	43.7	34.74	29.57	–	23.92	22.08	20.07	–
333.15 K	59.25	45.69	36.01	28.88	24.7	21.89	20.08	18.56	16.93	15.02
338.15 K	–	37.68	–	24.28	20.85	18.53	17.01	15.76	14.4	–
343.15 K	–	31.44	–	–	17.77	15.82	14.54	13.48	12.35	11.01
348.15 K	33.12	26.52	21.54	17.66	15.28	13.63	12.53	11.63	10.67	–
353.15 K	27.9	22.58	–	15.27	13.25	–	10.89	–	9.27	–
358.15 K	23.74	19.41	–	13.3	11.58	10.34	9.52	8.84	8.11	–
363.15 K	20.39	16.82	13.98	11.67	10.19	9.1	8.38	7.77	7.13	6.36
368.15 K	17.66	14.68	12.3	10.31	–	8.06	7.42	6.87	6.3	5.61
373.15 K	15.41	12.91	–	9.17	8.04	7.18	6.6	6.11	5.59	4.96

CCCC[n+]1ccn(C)c1.COP(=O)([O-])OC + CCC(=O)O.CCC(=O)[O-].CC[NH+](CC)CCO
x2 = 0
Conditions	viscosity [mPa·s]
278.15 K	3503
288.15 K	1361.1
293.15 K	895
298.15 K	609
303.15 K	426
308.15 K	305.8
313.15 K	224.9
318.15 K	168.9
323.15 K	129.4
333.15 K	79.9
338.15 K	64.25
348.15 K	43.18
353.15 K	36.02
358.15 K	30.38
363.15 K	25.86
368.15 K	22.22

CC(=O)[O-].CCCC[NH2+]CCO + CCCC[n+]1ccn(C)c1.O=S(=O)([N-]S(=O)(=O)C(F)(F)F)C(F)(F)F
viscosity [mPa·s]
Conditions	x1 = 0.1012	x1 = 0.2257	x1 = 0.3002	x1 = 0.423	x1 = 0.4998	x1 = 0.6018	x1 = 0.6987	x1 = 0.8008	x1 = 0.901	x1 = 1
278.15 K	–	–	–	–	–	–	–	–	–	6138
283.15 K	–	183.1	226.7	353	481	745	1144.5	–	2806	–
288.15 K	96.2	134.7	–	248.3	331.5	499	745	–	1734.8	2230
293.15 K	74.29	101.5	121.9	179.1	234.7	344	501	765	1109.3	1412.3
298.15 K	58.45	–	92.4	132.2	170.1	243.1	346	–	–	–
303.15 K	46.77	61.09	71.45	99.7	–	176	244.7	–	495	617
308.15 K	38.01	48.63	–	76.6	95.3	130.1	177.2	251.7	343	–
313.15 K	31.32	39.3	44.89	59.83	–	98.1	–	–	–	–
318.15 K	26.13	–	36.38	47.48	57.42	75.3	–	134.2	–	212.7
323.15 K	22.05	26.72	29.87	38.23	45.61	58.7	–	100.8	130.4	155.3
328.15 K	18.81	–	24.83	31.18	36.74	–	58.7	77	–	115.3
333.15 K	16.19	19	20.86	25.75	29.98	37.29	46.37	59.7	74.8	87
338.15 K	14.06	16.27	17.7	21.49	24.74	30.3	–	47.02	58	66.7
343.15 K	12.31	–	15.16	18.12	–	24.92	30.07	37.51	–	–
348.15 K	10.85	12.23	13.09	–	17.4	20.7	24.65	30.28	36.31	40.87
353.15 K	9.63	10.72	11.4	13.24	14.79	17.37	20.42	24.73	–	–
358.15 K	8.6	9.47	–	–	–	14.71	17.08	20.41	23.84	26.29
363.15 K	7.73	8.41	8.82	–	10.96	12.57	14.42	17	19.63	–
368.15 K	6.98	7.51	7.83	8.76	9.54	10.81	12.27	–	16.31	–
373.15 K	6.33	6.75	–	–	–	9.37	10.52	12.11	13.67	–
